According to patent US6323187A, “Therapeutic dinucleotide and derivatives” (priority 1999, dated 2001):

What was measured:
[1] = tested on: lung mucociliary clearance; settings: normal volunteers; K. Olivier, et al. (1996); cited from earlier work
in vitro = settings: human, bronchial epithelial cells, pH 7.2
Procedure: Epithelial cells were grown as monolayers on an airliquid interface in ALI medium. Assays were conducted on fully differentiated cells in KRB-Ringer solution (pH 7.2) at 37° C. with 0.1 mM nucleotide substrate. Aliquots of airway surface liquid were removed at 5, 10, 15, 20, 40 and 60 minutes. The metabolism was stopped by boiling and filtering the aliquots, and the samples were analyzed by high performance liquid chromatography using the following conditions: C- 18 column with a 55 min gradient of 10-100 mM KH2 PO4 and constant 8 mM tetrabutyl ammonium hydrogen sulfate and 10% methanol).

[2] = tested on: human airway epithelial cells; settings: human airway epithelial cells in vitro; D. Drutz, et al. (1996); cited from earlier work
goblet cells = settings: in vitro; M. Lethem, et al. (1993); cited from earlier work
airway epithelial cells = airway epithelial cells in vitro; S. Mason, et al. (1991); cited from earlier work
cough clearance = settings: patients with PCD; P. Noone, et al. (1996); cited from earlier work
P2Y2 receptor = settings: H. Brown, et al. (1991); cited from earlier work
Type II alveolar cells = settings: Gobran (1994); cited from earlier work
P2Y6 = assay: Inositol phosphate assay, P2Y6 receptor; type: cell-based; settings: IA = no agonist activity at 30 μM
Procedure: (§1) The pharmaceutical utility of the compounds of this invention is indicated by the inositol phosphate assay for P2Y2 and other P2Y receptor activity. This widely used assay, as described in E. Lazarowski, et al., Brit. J. Pharm. 116, 1619-27 (1995), relies on the measurement of inositol phosphate formation as a measurement of activity of compounds activating receptors linked via G-proteins to phospholipase C.
(§2) The compounds of Formula I was tested for its ability to elicit P2Y1, P2Y2, P2Y4 and P2Y6 receptor activity using the inositol phosphate assay as described by E. Lazarowski, et al., Brit. J. Pharm. 116, 1619-27 (1995).

P2Y2 = target: T1, P2Y2 (Homo sapiens, UniProt P41231); assay: Inositol phosphate assay, P2Y2 receptor; type: cell-based; settings: IA = no agonist activity at 30 μM
T1 construct: expressed in transfected cells
Procedure: as §1, §2

P2Y1 = assay: Inositol phosphate assay, P2Y1 receptor; type: cell-based; settings: IA = no agonist activity at 30 μM
Procedure: as §1, §2

P2Y4 = P2Y4 (Homo sapiens, UniProt P51582); assay: Inositol phosphate assay, P2Y4 receptor; type: cell-based; settings: IA = no agonist activity at 30 μM
Procedure: as §1, §2

sputum production = settings: normal healthy volunteers; background section; cited from earlier work
[3] = tested on: human nasal epithelial cells; assay: Chloride secretion in human nasal airway cells (change in ISC); type: cell-based; settings: more potent than U2 P4; amiloride 100 μM present; apical addition
Procedure: Airway epithelial cells were desegregated and isolated from freshly excised human nasal surgical specimens (Yankaskas, et al., Am. Rev. Respir. Dis. 132, 1281-1287 (1985)). Confluent monolayers were cultured on permeable collagen matrix supports in F-12 hormone-supplemented medium (Wu, et. al., Am. Rev. Respir. Dis. 132, 311-320 (1985)). Cells were incubated at 37° C. and grown to confluence. Development of transepithelial resistance was monitored to determine the formation of tight junctions between the cells. After formation of tight junctions, was confirmed, the matrix supports containing the cultures were mounted in modified Using chambers. […]
Polycarbonate Using chambers were milled to fit the plastic cups that supported the permeable collagen matrix on which the cells were grown. Bioelectric properties including ISC, transepithelial potential difference and resistance were monitored. Short-circuit current (ISC) was measured with a digital voltmeter (UNC Electronics, Chapel Hill, N.C.) and plotted on a strip-chart recorder. The open circuit potential was recorded periodically, and conductance was monitored in the voltage clamp mode by the current deflection in response to a 10-mV voltage pulse.
A stable baseline of ISC was recorded and amiloride (100 μM) was added to the solution bathing the apical surface to block sodium absorption. […] The change in ISC was recorded. […]

T1 sequence (P41231 whole entry): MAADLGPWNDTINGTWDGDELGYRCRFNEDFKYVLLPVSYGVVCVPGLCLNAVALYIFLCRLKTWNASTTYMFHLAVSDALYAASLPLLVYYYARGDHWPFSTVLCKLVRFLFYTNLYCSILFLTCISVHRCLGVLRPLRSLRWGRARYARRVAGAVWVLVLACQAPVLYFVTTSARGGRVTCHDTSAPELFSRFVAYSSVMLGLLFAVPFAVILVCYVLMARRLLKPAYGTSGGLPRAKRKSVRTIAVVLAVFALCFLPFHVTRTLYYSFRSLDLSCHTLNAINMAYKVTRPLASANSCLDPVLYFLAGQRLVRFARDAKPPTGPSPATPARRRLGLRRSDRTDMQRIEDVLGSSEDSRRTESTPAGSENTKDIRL
P2Y4, sequence (P51582 whole entry, species assumed): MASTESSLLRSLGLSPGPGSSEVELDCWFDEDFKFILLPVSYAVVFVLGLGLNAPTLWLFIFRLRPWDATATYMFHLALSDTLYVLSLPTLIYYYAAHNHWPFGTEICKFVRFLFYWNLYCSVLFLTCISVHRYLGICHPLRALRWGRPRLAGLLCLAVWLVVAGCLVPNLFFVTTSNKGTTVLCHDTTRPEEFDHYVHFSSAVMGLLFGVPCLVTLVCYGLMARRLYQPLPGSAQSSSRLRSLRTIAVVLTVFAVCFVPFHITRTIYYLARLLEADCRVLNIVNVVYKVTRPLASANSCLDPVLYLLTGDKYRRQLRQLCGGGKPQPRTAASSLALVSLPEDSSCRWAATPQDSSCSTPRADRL

Row | metabolised at 1 h, 100 µM (in vitro) | EC50 (P2Y6) | EC50 (P2Y2) | EC50 (P2Y1) | EC50 (P2Y4) | Compound | other results
1 | 100% | – | – | – | – | O=c1ccn([C@@H]2O[C@H](COP(=O)(O)OP(=O)(O)OP(=O)(O)O)[C@@H](O)[C@H]2O)c(=O)[nH]1 [UTP, uridine 5'-triphosphate] | lung mucociliary clearance [1]: improvement in lung mucociliary clearance; side-effects [1]: without any significant side-effects; cilia beat frequency [2]: increase cilia beat frequency; mucin secretion by goblet cells (goblet cells): increase both the rate and total amount of mucin secretion; Cl^- secretion (airway epithelial cells): increase Cl^- secretion; cough clearance (cough clearance): significantly enhances cough clearance; intracellular Ca^++ (P2Y2 receptor): increase intracellular Ca^++; release of surfactant from Type II alveolar cells (Type II alveolar cells): release of surfactant
2 | – | > 30 µM | > 30 µM | > 30 µM | > 30 µM | Nc1ccn([C@@H]2O[C@H](COP(=O)(O)OP(=O)(O)OP(=O)(O)OP(=O)(O)OC[C@H]3O[C@@H](n4ccc(N)nc4=O)[C@H](O)[C@@H]3O)[C@@H](O)[C@H]2O)c(=O)n1 [C2 P4] | –
3 | 40% | – | – | – | – | O=c1ccn([C@@H]2O[C@H](COP(=O)(O)OP(=O)(O)OP(=O)(O)OP(=O)(O)OC[C@H]3O[C@@H](n4ccc(=O)[nH]c4=O)[C@H](O)[C@@H]3O)[C@@H](O)[C@H]2O)c(=O)[nH]1 [U2 P4, P^1,P^4 -Di(uridine 5'-)tetraphosphate] | sputum production (sputum production): increase sputum production
4 | – | 3.5 µM | 0.45 µM | > 30 µM | 0.65 µM | Nc1ccn([C@@H]2O[C@H](COP(=O)(O)OP(=O)(O)OP(=O)(O)OP(=O)(O)OC[C@H]3O[C@@H](n4ccc(=O)[nH]c4=O)[C@H](O)[C@@H]3O)[C@@H](O)[C@H]2O)c(=O)n1 [CP4 U, P^1-(cytidine 5'-)-P^4-(uridine 5'-)-tetraphosphate] | potency relative to U2 P4 in the chloride secretion assay [3]: approximately ten-fold
